Data taken from patent publication US7399756B2, “Organo-phosphorous compounds for activating gamma/delta T cells” (Bioagency AG, priority 2001, dated 2008).

Tested on: V gamma 9+ T-cells (gamma/delta T-cells)
Assay: Activation of gamma/delta T-cells: CD25 expression on V gamma 9+ T-cells of peripheral blood lymphocytes, flow cytometry
Assay type: cell-based, human
Details: peripheral blood lymphocytes of healthy donors, 72 hours incubation with IL-2, CD25 activation marker; IPP positive control 10 μM
Protocol: Lymphocytes were obtained from the peripheral blood of healthy donors by Ficoll density gradient centrifugation. For each test, 2×10^5 of the cells so obtained were seeded in a volume of 0.2 ml of RPMI-1640 medium (Life Technologies) that was enriched with 25 mM HEPES, 2 mM L-glutamine, 0.025 mg/ml of gentamicin, 100 U/ml of human interleukin-2 (IL-2) (all from Life Technologies) and 10% human AB serum (Bavarian Red Cross). The test fractions were added in various dilutions, and isopentenyl diphosphate (IPP) from Sigma was used in a final concentration of 10 μM as a positive control. Incubation was effected in the incubator with 5% CO2 at 37° C. After 72 hours the cells were harvested and analysed in a flow cytometer. In so doing, the expression of the CD25 activation marker on the surface of V gamma 9^+ T-cells was measured with the aid of the monoclonal antibodies CD25-PE (B1.49.9), V gamma 9-FITC (lmmu360) and CD3-PC5 (UCHT1) supplied by Beckman-Coulter.
Lymphocytes were obtained from the peripheral blood of healthy donors by Ficoll density gradient centrifugation. […] After 72 hours the cells were harvested and analysed in a flow cytometer. In so doing, the expression of the CD25 activation marker on the surface of V gamma 9^+ T-cells was measured with the aid of the monoclonal antibodies CD25-PE (B1.49.9), V gamma 9-FITC (Immu360) and CD3-PC5 (UCHT1) supplied by Beckman-Coulter.

| Compound | activity relative to IPP (times more active than IPP) |
| --- | --- |
| CC(=CCCP(=O)([O-])OP(=O)([O-])[O-])CO.[Na+].[Na+].[Na+] [compound 15] | about 500 times |
| CC(=CCCP(=O)([O-])CP(=O)([O-])[O-])CO.[Na+].[Na+].[Na+] [compound 19] | about 500 times |
